Assay results taken from US8088806B2 (Achillion Pharmaceuticals, Inc., priority 2005, dated 2012).

System: HCV replicon
Test: Replicon based assay of HCV replication inhibition (NPT ELISA)
Format: cell-based, Hepatitis C virus
Details: Hepatitis C virus, Huh-7, 72 h, Table I; Huh-7 HCV replicon-containing cells, three days; read-out: Activity
Method: Compounds claimed herein are tested for the ability to inhibit viral replication of the Hepatitis C replicon in cultured cells in which the HCV replicon construct has been incorporated. The HCV replicon system was described by Bartenschlager, et. al (Science, 285, pp. 110-113 (1999)). The replicon system is predictive of in vivo anti-HCV activity; compounds that are active in humans uniformly evidence activity in the replicon assay.
In this assay HCV replicon containing cells are treated with different concentrations of the test compound to ascertain the ability of the test compound to suppress replication of the HCV replicon. As a positive control, HCV replicon-containing cells are treated with different concentrations of interferon alpha, a known inhibitor of HCV replication. The replicon assay system includes Neomycin Phosphotransferase (NPT) as a component of the replicon itself in order to detect the transcription of replicon gene products in the host cell. Cells in which the HCV replicon is actively replicating have high levels of NPT; the level of NPT is proportional to HCV replication. […] The NPT level of each sample is measured using a captured ELISA.
A protocol for testing compounds for the ability to inhibit viral replication of the Hepatitis C replicon cultured cells in which the replicon construct has been incorporated, follows.
The HCV replicon contains, 5′-3′, the HCV-IRES, the neomycin phosphotransferase (neo) gene, the IRES of encephalomyocarditis virus, which directs translation of HCV sequences NS3 to NS5B, and the 3′-NTR. The sequence of the HCV replicon has been deposited in GenBank (Accession no. AJ242652).
The replicon is transfected into Huh-7 cells using standard methods such as electroporation.
The equipment and materials include, but are not limited to, Huh-7 HCV replicon-containing cells, maintenance media (DMEM (Dulbecco's modified Eagle media) supplemented with 10% FBS, L-glutamine, non-essential amino acids, penicillin (100 units/ml), streptomycin (100 micrograms/ml), and 500 micrograms/ml of Geneticin (G418), screening media (DMEM supplemented with 10% FBS, L-glutamine, non-essential amino acids, penicillin (100 units/ml) and streptomycin (100 micrograms/ml)), 96 well tissue culture plates (flat bottom), 96 well plates (U bottom for drug dilution), Interferon alpha for positive control, fixation reagent (such as methanol: acetone), primary antibody (rabbit anti-NPTII), secondary antibody: Eu-N1l, and enhancement solution.
The cells are then seeded onto 96-well plates at a density of 6000-7500 cells/100 microliters/well (6-7.5×10^5 cells/10 ml/plate). The plates are then incubated at 37° C. in a 5% CO2 incubator.
HCV replicon-containing cells are rinsed with once PBS once; 2 mls of trypsin are then added. Cells are incubated at 37° C. in a 5% CO2 incubator for 3-5 minutes. 10 mls of complete medium is added to stop the reaction. Cells are blown gently, put into a 15 ml tube, and spun at 1200 rpm for four minutes. The trypsin/medium solution is removed and 5 mls of medium (500 ml DMEM (high glucose)) from BRL catalog #12430-054; 50 mls 10% FBS, 5% Geneticin G418 (50 mg/ml, BRL catalog #10131-035), 5 ml MEM non-essential amino acids (100×BRL #11140-050) and 5 ml pen-strep (BRL # 15140-148) is added. The cells and media are mixed carefully
Cells are plated with screening medium (500 ml DMEM (BRL #21063-029), 50 ml FBS (BRL #10082-147) and 5 ml MEM non-essential amino acid (BRL #11140-050) at 6000-7500 cells/100 μl/well of 96 well plate (6-7.5×10^5 cells/10 ml/plate). Plates are placed into 37° C. 5% CO2 incubator overnight.
The following morning, drugs (test compounds or interferon alpha) are diluted in 96 well U bottom plates with media or DMSO/media, depending on the final concentration chosen for screening. Generally for 6 concentrations of each test compounds ranging from 10 micromolar to 0.03 micromolar are applied. […]

| SMILES | EC50 |
| --- | --- |
| Clc1ccc(-c2csc(Nc3ccc(Cc4ccccc4)cc3)n2)cc1 [compound 42, N-(4-benzylphenyl)-4-(4-chlorophenyl)thiazol-2-amine] | > 10 µM |
| Fc1ccc(-c2csc(Nc3ccc(OC(F)(F)F)cc3)n2)cc1 [compound 43, 4-(4-fluorophenyl)-N-(4-(trifluoromethoxy)phenyl)thiazol-2-amine] | > 10 µM |
| FC(F)(F)Oc1ccc(Nc2nc(-c3ccc(Cl)c(Cl)c3)cs2)cc1 [compound 44, 4-(3,4-dichlorophenyl)-N-(4-(trifluoromethoxy)phenyl)thiazol-2-amine] | > 10 µM |
| Fc1ccc(-c2csc(Nc3ccc(OC(F)(F)F)cc3)n2)c(F)c1 [compound 45, 4-(2,4-difluorophenyl)-N-(4-(trifluoromethoxy)phenyl)thiazol-2-amine] | > 10 µM |
| FC(F)(F)Oc1ccc(Nc2nc(-c3ccc(Cl)cc3)cs2)cc1 [compound 46, 4-(4-chlorophenyl)-N-(4-(trifluoromethoxy)phenyl)thiazol-2-amine] | > 10 µM |
| Fc1ccc(-c2csc(Nc3ccc(Cl)c(Cl)c3)n2)cc1 [compound 47, N-(3,4-dichlorophenyl)-4-(4-fluorophenyl)thiazol-2-amine] | < 1 µM |
| Clc1ccc(Nc2nc(-c3ccc(Cl)c(Cl)c3)cs2)cc1Cl [compound 48, N,4-bis(3,4-dichlorophenyl)thiazol-2-amine] | < 1 µM |
| Fc1ccc(-c2csc(Nc3ccc(Cl)c(Cl)c3)n2)c(F)c1 [compound 49, N-(3,4-dichlorophenyl)-4-(2,4-difluorophenyl)thiazol-2-amine] | < 1 µM |
| Clc1ccc(-c2csc(Nc3ccc(Cl)c(Cl)c3)n2)cc1 [compound 50, N-(3,4-dichlorophenyl)-4-(4-chlorophenyl)thiazol-2-amine] | > 10 µM |
| N#Cc1ccc(Nc2nc(-c3ccc(F)cc3)cs2)cc1 [compound 51, 4-(4-(4-fluorophenyl)thiazol-2-ylamino)benzonitrile] | > 10 µM |
| N#Cc1ccc(Nc2nc(-c3ccc(Cl)c(Cl)c3)cs2)cc1 [compound 52, 4-(4-(3,4-dichlorophenyl)thiazol-2-ylamino)benzonitrile] | > 10 µM |
| N#Cc1ccc(Nc2nc(-c3ccc(F)cc3F)cs2)cc1 [compound 53, 4-(4-(2,4-difluorophenyl)thiazol-2-ylamino)benzonitrile] | > 10 µM |
| N#Cc1ccc(Nc2nc(-c3ccc(Cl)cc3)cs2)cc1 [compound 54, 4-(4-(4-chlorophenyl)thiazol-2-ylamino)benzonitrile] | > 10 µM |
| N#Cc1cccc(Nc2nc(-c3ccc(F)cc3)cs2)c1 [compound 55, 3-(4-(4-fluorophenyl)thiazol-2-ylamino)benzonitrile] | > 10 µM |
| N#Cc1cccc(Nc2nc(-c3ccc(Cl)c(Cl)c3)cs2)c1 [compound 56, 3-(4-(3,4-dichlorophenyl)thiazol-2-ylamino)benzonitrile] | > 10 µM |
| N#Cc1cccc(Nc2nc(-c3ccc(F)cc3F)cs2)c1 [compound 57, 3-(4-(2,4-difluorophenyl)thiazol-2-ylamino)benzonitrile] | > 10 µM |
| N#Cc1cccc(Nc2nc(-c3ccc(Cl)cc3)cs2)c1 [compound 58, 3-(4-(4-chlorophenyl)thiazol-2-ylamino)benzonitrile] | > 10 µM |
| Fc1ccc(-c2csc(Nc3ccc(Cl)c(C(F)(F)F)c3)n2)cc1 [compound 59, N-(4-chloro-3-(trifluoromethyl)phenyl)-4-(4-fluorophenyl)thiazol-2-amine] | < 1 µM |
| FC(F)(F)c1cc(Nc2nc(-c3ccc(Cl)c(Cl)c3)cs2)ccc1Cl [compound 60, N-(4-chloro-3-(trifluoromethyl)phenyl)-4-(3,4-dichlorophenyl)thiazol-2-amine] | < 1 µM |

| SMILES | EC50 |
| --- | --- |
| Fc1ccc(-c2csc(Nc3ccc(Cl)c(C(F)(F)F)c3)n2)c(F)c1 [compound 61, N-(4-chloro-3-(trifluoromethyl)phenyl)-4-(2,4-difluorophenyl)thiazol-2-amine] | < 1 µM |
| FC(F)(F)c1cc(Nc2nc(-c3ccc(Cl)cc3)cs2)ccc1Cl [compound 62, N-(4-chloro-3-(trifluoromethyl)phenyl)-4-(4-chlorophenyl)thiazol-2-amine] | > 10 µM |
| CCCCCOc1ccc(Nc2nc(-c3ccc(F)cc3)cs2)cn1 [compound 63, N-(4-(4-fluorophenyl)thiazol-2-yl)-6-(pentyloxy)pyridin-3-amine] | < 1 µM |
| CCCCCOc1ccc(Nc2nc(-c3ccc(Cl)c(Cl)c3)cs2)cn1 [compound 64, N-(4-(3,4-dichlorophenyl)thiazol-2-yl)-6-(pentyloxy)pyridin-3-amine] | > 10 µM |
| CCCCCOc1ccc(Nc2nc(-c3ccc(F)cc3F)cs2)cn1 [compound 65, N-(4-(2,4-difluorophenyl)thiazol-2-yl)-6-(pentyloxy)pyridin-3-amine] | > 10 µM |
| CCCCCOc1ccc(Nc2nc(-c3ccc(Cl)cc3)cs2)cn1 [compound 66, N-(4-(4-chlorophenyl)thiazol-2-yl)-6-(pentyloxy)pyridin-3-amine] | < 1 µM |
| CCCCCOc1ccc(Nc2nc(-c3cccnc3)cs2)cn1 [compound 67, 6-(pentyloxy)-N-(4-(pyridin-3-yl)thiazol-2-yl)pyridin-3-amine] | < 1 µM |
| CCCCCOc1ccc(Nc2nc(-c3cccnc3)cs2)cc1F [compound 68, N-(3-fluoro-4-(pentyloxy)phenyl)-4-(pyridin-3-yl)thiazol-2-amine] | < 1 µM |
| c1cncc(-c2csc(Nc3ccc(CN4CCCCC4)cc3)n2)c1 [compound 69, N-(4-((piperidin-1-yl)methyl)phenyl)-4-(pyridin-3-yl)thiazol-2-amine] | > 10 µM |
| c1cc(Nc2nc(-c3cccnc3)cs2)cc(OC2Cc3ccccc3C2)c1 [compound 70, N-(3-(2,3-dihydro-1H-inden-2-yloxy)phenyl)-4-(pyridin-3-yl)thiazol-2-amine] | < 1 µM |
| Fc1cc(Nc2nc(-c3cccnc3)cs2)ccc1OCC1CCCCC1 [compound 71, N-(4-(cyclohexylmethoxy)-3-fluorophenyl)-4-(pyridin-3-yl)thiazol-2-amine] | < 1 µM |
| Fc1cc(Nc2nc(-c3cccnc3)cs2)ccc1N1CCC(c2ccccc2)CC1 [compound 72, N-(3-fluoro-4-(4-phenylpiperidin-1-yl)phenyl)-4-(pyridin-3-yl)thiazol-2-amine] | < 1 µM |
| FC(F)(F)Oc1cccc(CNc2nc(-c3cccnc3)cs2)c1 [compound 76, N-(3-(trifluoromethoxy)benzyl)-4-(pyridin-3-yl)thiazol-2-amine] | > 10 µM |
| FC(F)(F)Oc1ccc(CNc2nc(-c3cccnc3)cs2)cc1 [compound 77, N-(4-(trifluoromethoxy)benzyl)-4-(pyridin-3-yl)thiazol-2-amine] | > 10 µM |
| c1ccc(-c2ccc(CNc3nc(-c4cccnc4)cs3)cc2)cc1 [compound 78, N-(4-phenyl-benzyl)-4-(pyridin-3-yl)thiazol-2-amine] | > 10 µM |
| c1ccc(-c2cccc(CNc3nc(-c4cccnc4)cs3)c2)cc1 [compound 79, N-(3-phenyl-benzyl)-4-(pyridin-3-yl)thiazol-2-amine] | > 10 µM |
| c1ccc(Oc2ccc(CNc3nc(-c4cccnc4)cs3)cc2)cc1 [compound 80, N-(4-phenoxybenzyl)-4-(pyridin-3-yl)thiazol-2-amine] | > 10 µM |
| CCCCOc1ccc(CNc2nc(-c3cccnc3)cs2)cc1 [compound 81, N-(4-butoxybenzyl)-4-(pyridin-3-yl)thiazol-2-amine] | > 10 µM |
